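Test compounds were applied to cells in 96-well plates for 48 hours at 5 doses. GI50 marks 50% less growth.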 Active and inactive are the calls of the source. Rule as the data show it: active = GI50 up to about 1.1 µM and inactive = higher.
Tests used:
Test in all cases: inhibition of tumour cell growth, NCI panel, 48 h
SF-539 = test system: SF-539
SK-MEL-2 = test system: SK-MEL-2
OVCAR-4 = test system: OVCAR-4
SR = test system: SR
SF-295 = test system: SF-295
UACC-62 = test system: UACC-62
SNB-19 = test system: SNB-19
LOX IMVI = test system: LOX IMVI
M14 = test system: M14
SNB-75 = test system: SNB-75
CCRF-CEM = test system: CCRF-CEM
U-251 = test system: U-251
SF-268 = test system: SF-268
NCI-H226 = test system: NCI-H226
HOP-92 = test system: HOP-92
UACC-257 = test system: UACC-257
OVCAR-5 = test system: OVCAR-5
SW-620 = test system: SW-620
HCT-116 = test system: HCT-116

SMILES | GI50 (SF-539) | GI50 (SK-MEL-2) | GI50 (OVCAR-4) | GI50 (SR) | GI50 (SF-295) | GI50 (UACC-62) | GI50 (SNB-19) | GI50 (LOX IMVI) | GI50 (M14) | GI50 (SNB-75) | GI50 (CCRF-CEM) | GI50 (U-251) | GI50 (SF-268) | GI50 (NCI-H226) | GI50 (HOP-92) | GI50 (UACC-257) | GI50 (OVCAR-5) | GI50 (SW-620) | GI50 (HCT-116)
N=C(N)N/N=C(/CC1OC(=O)c2ccccc21)c1ccc2ccccc2c1 (stereo unspecified) | 13.2 µM (inactive) | 46.9 µM (inactive) | 17.2 µM (inactive) | 14.2 µM (inactive) | 23.8 µM (inactive) | 17.9 µM (inactive) | > 100 µM (inactive) | 23.1 µM (inactive) | 16.7 µM (inactive) | 20 µM (inactive) | 15.1 µM (inactive) | 14.6 µM (inactive) | 13.6 µM (inactive) | 13.7 µM (inactive) | 22 µM (inactive) | 14.6 µM (inactive) | 30.1 µM (inactive) | – | –
COC1(OC)CC2C=C(S(=O)(=O)c3ccccc3)C1N(Cc1ccccc1)C2=O (stereo unspecified) | 21 µM (inactive) | – | 29.2 µM (inactive) | 28.9 µM (inactive) | 50.9 µM (inactive) | 20.2 µM (inactive) | 39.8 µM (inactive) | 16.1 µM (inactive) | 18.9 µM (inactive) | 36.5 µM (inactive) | 16.2 µM (inactive) | 34.8 µM (inactive) | > 100 µM (inactive) | 29.9 µM (inactive) | 28.3 µM (inactive) | 22.6 µM (inactive) | – | 22.6 µM (inactive) | 13.4 µM (inactive)
COc1ccc(C2SCC(=O)N2NC(=O)c2ccncc2)cc1F (stereo unspecified) | – | > 100 µM (inactive) | > 100 µM (inactive) | > 100 µM (inactive) | > 100 µM (inactive) | – | > 100 µM (inactive) | > 100 µM (inactive) | > 100 µM (inactive) | > 100 µM (inactive) | – | > 100 µM (inactive) | > 100 µM (inactive) | > 100 µM (inactive) | > 100 µM (inactive) | > 100 µM (inactive) | > 100 µM (inactive) | > 100 µM (inactive) | > 100 µM (inactive)
COc1ccc(C2c3cc4c(cc3OC(O)(CO)C2C(=O)O)OCO4)cc1.COc1ccc(C2c3cc4c(cc3OC3(O)COC(=O)C23)OCO4)cc1 (stereo unspecified) | 20.7 µM (inactive) | 25.9 µM (inactive) | > 100 µM (inactive) | 19.2 µM (inactive) | 22.8 µM (inactive) | 17.7 µM (inactive) | – | 16.5 µM (inactive) | 15.3 µM (inactive) | 30.3 µM (inactive) | 18.7 µM (inactive) | 19.8 µM (inactive) | 28 µM (inactive) | 22.5 µM (inactive) | 21 µM (inactive) | 21.5 µM (inactive) | 39.4 µM (inactive) | 18.7 µM (inactive) | 18.2 µM (inactive)
Nc1nc(SCc2ccc([N+](=O)[O-])cc2)nc2c1ncn2C1OC(COP(=O)(O)O)C(O)C1O (stereo unspecified) | > 100 µM (inactive) | > 100 µM (inactive) | > 100 µM (inactive) | > 100 µM (inactive) | > 100 µM (inactive) | > 100 µM (inactive) | > 100 µM (inactive) | > 100 µM (inactive) | > 100 µM (inactive) | > 100 µM (inactive) | > 100 µM (inactive) | > 100 µM (inactive) | > 100 µM (inactive) | > 100 µM (inactive) | > 100 µM (inactive) | > 100 µM (inactive) | > 100 µM (inactive) | > 100 µM (inactive) | > 100 µM (inactive)
COc1cc(/C=C\c2ccc(Br)cc2)cc(OC)c1OC | 0.000463 µM (active) | 0.00794 µM (active) | 0.0622 µM (active) | 0.01 µM (active) | 0.000296 µM (active) | 0.000404 µM (active) | 0.0057 µM (active) | 0.000811 µM (active) | 0.000312 µM (active) | 0.000422 µM (active) | 0.000352 µM (active) | 0.000463 µM (active) | 0.000792 µM (active) | 0.0014 µM (active) | 0.01 µM (active) | 0.000414 µM (active) | 35.4 µM (inactive) | 0.000382 µM (active) | 0.000515 µM (active)
CC[C@@H](C(=O)[C@@H](C)[C@@H](O)[C@H](C)CCc1ccc(C)c(O)c1C(=O)O)[C@H]1O[C@](CC)([C@H]2CC[C@](O)(CC)[C@H](C)O2)C[C@@H]1C [LASALOCID A SODIUM] | 1.15 µM (inactive) | 1.85 µM (inactive) | 3.23 µM (inactive) | 1.12 µM (inactive) | 1.56 µM (inactive) | 1.81 µM (inactive) | 1.3 µM (inactive) | 2.77 µM (inactive) | 3.31 µM (inactive) | 0.92 µM (active) | 0.695 µM (active) | 1.34 µM (inactive) | 2.21 µM (inactive) | 3.05 µM (inactive) | 1.69 µM (inactive) | 2.99 µM (inactive) | 6.47 µM (inactive) | 2.33 µM (inactive) | 1.48 µM (inactive)
O=c1[nH]c2cc(-c3ccccc3)nc-2nn1-c1c(Cl)cc(Cl)cc1Cl | 19.4 µM (inactive) | 26.5 µM (inactive) | – | 23.7 µM (inactive) | 32.1 µM (inactive) | 17.5 µM (inactive) | 33.1 µM (inactive) | 24.3 µM (inactive) | 23.9 µM (inactive) | – | 28.6 µM (inactive) | 19.1 µM (inactive) | > 100 µM (inactive) | 23.7 µM (inactive) | 31.5 µM (inactive) | 29.5 µM (inactive) | 39.4 µM (inactive) | 33.7 µM (inactive) | 22.4 µM (inactive)
CC1=C(O)C(=O)C2C(=O)C1C(C)C2c1ccc(C)cc1 (stereo unspecified) | > 100 µM (inactive) | > 100 µM (inactive) | > 100 µM (inactive) | > 100 µM (inactive) | > 100 µM (inactive) | > 100 µM (inactive) | > 100 µM (inactive) | > 100 µM (inactive) | > 100 µM (inactive) | 98.9 µM (inactive) | > 100 µM (inactive) | > 100 µM (inactive) | > 100 µM (inactive) | – | > 100 µM (inactive) | > 100 µM (inactive) | > 100 µM (inactive) | > 100 µM (inactive) | –
COc1ccc(OC(C)=O)c2c1CCC=CC2=O | 16.9 µM (inactive) | 17.8 µM (inactive) | 20 µM (inactive) | 15.1 µM (inactive) | 20.9 µM (inactive) | 13.4 µM (inactive) | 17.6 µM (inactive) | 4.7 µM (inactive) | 6.78 µM (inactive) | 15.8 µM (inactive) | 3.44 µM (inactive) | 18.3 µM (inactive) | > 10 µM (inactive) | 18.8 µM (inactive) | 2.83 µM (inactive) | 17.7 µM (inactive) | 16.7 µM (inactive) | 13.2 µM (inactive) | 18.7 µM (inactive)
CCc1cccc(C(C)C)c1NC(=O)CC1Sc2ccccc2NC1=O (stereo unspecified) | > 100 µM (inactive) | 39.5 µM (inactive) | 76.2 µM (inactive) | 30.1 µM (inactive) | 44.3 µM (inactive) | – | 23.2 µM (inactive) | 45 µM (inactive) | 38.6 µM (inactive) | 60.7 µM (inactive) | 47.5 µM (inactive) | 71 µM (inactive) | > 100 µM (inactive) | > 100 µM (inactive) | 39.5 µM (inactive) | 43.8 µM (inactive) | > 100 µM (inactive) | 13 µM (inactive) | 56.4 µM (inactive)
